Measurements as given in patent publication US11072588B2, “Barbituric acid derivatives comprising cationic and lipophilic groups” (UNIVERSITETET I TROMSØ—NORGES ARKTISKE UNIVERSITET, priority 2017, dated 2021).
Converted amounts (≈) assume the structure as drawn.

How the values were obtained:
[1] = test system: Corynebacterium glutamicum ATCC 13032; assay: MIC assay, antibiotic susceptible reference strain; assay type: cell-based; settings: Corynebacterium glutamicum, ATCC13032, read-out: Antimicrobial activity (MIC) C. g
Description: (§1) Working solutions of the test derivatives were prepared with up to 100% DMSO and stored at −20° C. If necessary, the solutions were heated to 40-80° C. before testing to facilitate complete dissolution. Double-distilled water was used in all dilutions prepared. […] A microdilution susceptibility test was used for MIC determination according to Clinical and Laboratory Standards Institute, “Methods for Dilution Antimicrobial Sisceptibility Tests for Bacteria That Graw Aerobically”, Approved Standard M07-A9, edition 2012, with modifications as described by Igumnova et al (Bioorg Med Chem, 2016, 24 (22), 5884-5894).
(§2) Briefly, the bacterial inoculum was adjusted to approximately 2.5-3×10^4 cells/mL in Mueller-Hinton broth (MHB, Difco Laboratories, USA), and incubated in a ratio of 1:1 with test derivatives in polystyrene 96-well flat-bottom microplates (NUNC, Roskilde, Denmark). Positive growth control (without test derivatives) and negative control (without bacteria) were included. The reference antibiotic was oxytetracycline hydrochloride (Sigma Aldrich, Saint Louis, Mo., USA). The microplates were incubated in an EnVision microplate reader (Perkin-Elmer, Turku, Finland) placed in an incubator set to 35° C. for 48 h. The MIC value was defined as the lowest concentration of derivative resulting in no bacterial growth as determined by OD600 measurement. All derivatives were tested in three parallels.

[2] = test system: Escherichia coli ATCC 25922; assay: MIC assay, antibiotic susceptible reference strain; assay type: cell-based; settings: Escherichia coli, ATCC25922, read-out: Antimicrobial activity (MIC) E. c
Description: as §1, §2

[3] = test system: Pseudomonas aeruginosa PA01, DSM 19880 (ATCC 15692); assay: MIC assay, antibiotic susceptible reference strain; assay type: cell-based; settings: Pseudomonas aeruginosa, read-out: Antimicrobial activity (MIC) P. a
Description: as §1, §2

[4] = test system: Staphylococcus aureus ATCC 9144; assay: MIC assay, antibiotic susceptible reference strain; assay type: cell-based; settings: Staphylococcus aureus, ATCC9144, read-out: Antimicrobial activity (MIC) S. a
Description: as §1, §2

E. faecium 50673722 = assay: MIC, multi-resistant clinical isolate; assay type: cell-based, Enterococcus faecium; settings: for MIC: Enterococcus faecium, read-out: Antimicrobial activity (MIC); for selectivity index (EC50/MIC): RBC EC50 / MIC
Description: as §1, §2
(§3) The MIC was determined as explained above with some exceptions; working solutions of test derivatives were prepared from concentrated DMSO stocks stored at room temperature, the density of the bacterial inoculum was increased 40× to 1-1.2×10^6 cells/mL, enterococci were incubated in Brain Heart Infusion broth (BHIB, Difco Laboratories, USA), the microplates were incubated for 24 h, and the derivatives were tested in four parallels.

E. faecium 50758899 = assay: MIC, multi-resistant clinical isolate; assay type: cell-based, Enterococcus faecium; settings: for MIC: Enterococcus faecium, read-out: Antimicrobial activity (MIC); for selectivity index (EC50/MIC): RBC EC50 / MIC
Description: as §1, §2, §3

E. faecium 50901530 = assay: MIC, multi-resistant clinical isolate; assay type: cell-based, Enterococcus faecium; settings: for MIC: Enterococcus faecium, read-out: Antimicrobial activity (MIC); for selectivity index (EC50/MIC): RBC EC50 / MIC
Description: as §1, §2, §3

E. faecium K36-18 = assay: MIC, multi-resistant clinical isolate; assay type: cell-based, Enterococcus faecium; settings: for MIC: Enterococcus faecium, K3618, read-out: Antimicrobial activity (MIC); for selectivity index (EC50/MIC): RBC EC50 / MIC, E. faecium K36-18
Description: as §1, §2, §3

E. coli 50639799 = assay: MIC, multi-resistant clinical isolate; assay type: cell-based, Escherichia coli; settings: for MIC: Escherichia coli, read-out: Antimicrobial activity (MIC); for selectivity index (EC50/MIC): RBC EC50 / MIC
Description: as §1, §2, §3

E. coli 50857972 = assay: MIC, multi-resistant clinical isolate; assay type: cell-based, Escherichia coli; settings: for MIC: Escherichia coli, read-out: Antimicrobial activity (MIC); for selectivity index (EC50/MIC): RBC EC50 / MIC
Description: as §1, §2, §3

P. aeruginosa 50692172 = assay: MIC, multi-resistant clinical isolate; assay type: cell-based, Pseudomonas aeruginosa; settings: for MIC: Pseudomonas aeruginosa, read-out: Antimicrobial activity (MIC); for selectivity index (EC50/MIC): RBC EC50 / MIC
Description: as §1, §2, §3

P. aeruginosa 50692520 = assay: MIC, multi-resistant clinical isolate; assay type: cell-based, Pseudomonas aeruginosa; settings: for MIC: Pseudomonas aeruginosa, read-out: Antimicrobial activity (MIC); for selectivity index (EC50/MIC): RBC EC50 / MIC
Description: as §1, §2, §3

P. aeruginosa K34-73 = assay: MIC, multi-resistant clinical isolate; assay type: cell-based, Pseudomonas aeruginosa; settings: for MIC: Pseudomonas aeruginosa, K3473, read-out: Antimicrobial activity (MIC); for selectivity index (EC50/MIC): RBC EC50 / MIC, P. aeruginosa K34-73
Description: as §1, §2, §3

P. aeruginosa K34-7 = assay: MIC, multi-resistant clinical isolate; assay type: cell-based, Pseudomonas aeruginosa; settings: for MIC: Pseudomonas aeruginosa, K347, read-out: Antimicrobial activity (MIC); for selectivity index (EC50/MIC): RBC EC50 / MIC, P. aeruginosa K34-7
Description: as §1, §2, §3

P. aeruginosa K44-24 = assay: MIC, multi-resistant clinical isolate; assay type: cell-based, Pseudomonas aeruginosa; settings: for MIC: Pseudomonas aeruginosa, K4424, read-out: Antimicrobial activity (MIC); for selectivity index (EC50/MIC): RBC EC50 / MIC
Description: as §1, §2, §3

K. pneumoniae 50531633 = assay: MIC, multi-resistant clinical isolate; assay type: cell-based, Klebsiella pneumoniae; settings: K. pneumoniae 50531633, resistant to colistin; for MIC: Klebsiella pneumoniae, 24 h, read-out: Antimicrobial activity (MIC); for selectivity index (EC50/MIC): RBC EC50 / MIC
Description: as §1, §2, §3

K. pneumoniae 50667959 = assay: MIC, multi-resistant clinical isolate; assay type: cell-based, Klebsiella pneumoniae; settings: for MIC: Klebsiella pneumoniae, read-out: Antimicrobial activity (MIC); for selectivity index (EC50/MIC): RBC EC50 / MIC
Description: as §1, §2, §3

K. pneumoniae K47-25 = assay: MIC, multi-resistant clinical isolate; assay type: cell-based, Klebsiella pneumoniae; settings: for MIC: Klebsiella pneumoniae, K4725, 24 h, read-out: Antimicrobial activity (MIC)
Description: as §1, §2, §3

K. pneumoniae K66-45 = assay: MIC, multi-resistant clinical isolate; assay type: cell-based, Klebsiella pneumoniae; settings: for MIC: Klebsiella pneumoniae, K6645, read-out: Antimicrobial activity (MIC); for selectivity index (EC50/MIC): RBC EC50 / MIC, K. pneumoniae K66-45
Description: as §1, §2, §3

S. epidermidis = assay: Anti-biofilm activity (inhibition of biofilm formation); assay type: cell-based; settings: Staphylococcus epidermidis, read-out: Anti-biofilm IC50
[5] = test system: panel of 30 multi-resistant clinical isolates of Gram-positive and Gram-negative bacteria; assay: MIC screening, ranges over the panel of clinical isolates; assay type: cell-based; settings: read-out: MIC values against S. aurues, E. faecium and E. coli
Description: as §1, §2, §3

E. faecium TUH50-22 = assay: MIC, multi-resistant clinical isolate; assay type: cell-based, Enterococcus faecium
Description: as §1, §2, §3

K. pneumoniae 50625602 = assay: MIC, multi-resistant clinical isolate; assay type: cell-based, Klebsiella pneumoniae
Description: as §1, §2, §3

| SMILES | MIC [1] | MIC [2] | MIC [3] | MIC [4] | MIC (E. faecium 50673722) | selectivity index (EC50/MIC) (E. faecium 50673722) | MIC (E. faecium 50758899) | selectivity index (EC50/MIC) (E. faecium 50758899) | MIC (E. faecium 50901530) | selectivity index (EC50/MIC) (E. faecium 50901530) | MIC (E. faecium K36-18) | selectivity index (EC50/MIC) (E. faecium K36-18) | MIC (E. coli 50639799) | selectivity index (EC50/MIC) (E. coli 50639799) | MIC (E. coli 50857972) | selectivity index (EC50/MIC) (E. coli 50857972) | MIC (P. aeruginosa 50692172) | selectivity index (EC50/MIC) (P. aeruginosa 50692172) | MIC (P. aeruginosa 50692520) | selectivity index (EC50/MIC) (P. aeruginosa 50692520) | also measured |
| --- | --- | --- | --- | --- | --- | --- | --- | --- | --- | --- | --- | --- | --- | --- | --- | --- | --- | --- | --- | --- | --- |
| NCCCCN1C(=O)N(CCCCN)C(=O)C(Cc2cc(Br)cc(Br)c2)(Cc2cc(Br)cc(Br)c2)C1=O [7(ii)] | 1 µg/mL (≈ 1.31 µM) | 4 µg/mL (≈ 5.22 µM) | 8 µg/mL (≈ 10.4 µM) | 4 µg/mL (≈ 5.22 µM) | 4 µg/mL (≈ 5.22 µM) | (21) | 4 µg/mL (≈ 5.22 µM) | (21) | 4 µg/mL (≈ 5.22 µM) | (21) | 8 µg/mL (≈ 10.4 µM) | (10) | 8 µg/mL (≈ 10.4 µM) | (10) | 8 µg/mL (≈ 10.4 µM) | (10) | 16 µg/mL (≈ 20.9 µM) | (5) | 16 µg/mL (≈ 20.9 µM) | (5) | MIC (P. aeruginosa K34-73): 16 µg/mL (≈ 20.9 µM); selectivity index (EC50/MIC) (P. aeruginosa K34-73): (5); MIC (P. aeruginosa K34-7): 16 µg/mL (≈ 20.9 µM); selectivity index (EC50/MIC) (P. aeruginosa K34-7): (5); MIC (P. aeruginosa K44-24): 16 µg/mL (≈ 20.9 µM); selectivity index (EC50/MIC) (P. aeruginosa K44-24): (5); MIC (K. pneumoniae 50531633): 8 µg/mL (≈ 10.4 µM); selectivity index (EC50/MIC) (K. pneumoniae 50531633): (10); MIC (K. pneumoniae 50667959): 16 µg/mL (≈ 20.9 µM); selectivity index (EC50/MIC) (K. pneumoniae 50667959): (5); MIC (K. pneumoniae K47-25): 16 µg/mL (≈ 20.9 µM); selectivity index (EC50/MIC) (K. pneumoniae K47-25; RBC EC50 / MIC, K. pneumoniae K47-25, resistant to colistin): (5); MIC (K. pneumoniae K66-45): 16 µg/mL (≈ 20.9 µM); selectivity index (EC50/MIC) (K. pneumoniae K66-45): (5); IC50 (S. epidermidis): 6 µg/mL (≈ 7.83 µM); MIC [5]: 4 to 8 µg/mL (≈ 5.22 to 10.4 µM) |
| NCCCCN1C(=O)N(CCCCN)C(=O)C(Cc2cc(C(F)(F)F)cc(C(F)(F)F)c2)(Cc2cc(C(F)(F)F)cc(C(F)(F)F)c2)C1=O [7(vi)] | 1 µg/mL (≈ 1.38 µM) | 8 µg/mL (≈ 11.1 µM) | 8 µg/mL (≈ 11.1 µM) | 8 µg/mL (≈ 11.1 µM) | 8 µg/mL (≈ 11.1 µM) | (23) | 16 µg/mL (≈ 22.1 µM) | (11) | 8 µg/mL (≈ 11.1 µM) | (23) | 16 µg/mL (≈ 22.1 µM) | (11) | 16 µg/mL (≈ 22.1 µM) | (11) | 8 µg/mL (≈ 11.1 µM) | (23) | 32 µg/mL (≈ 44.3 µM) | (6) | 32 µg/mL (≈ 44.3 µM) | (6) | MIC (E. faecium TUH50-22; Enterococcus faecium, TUH5022, read-out: Antimicrobial activity (MIC)): 8 µg/mL (≈ 11.1 µM); selectivity index (EC50/MIC) (E. faecium TUH50-22; RBC EC50 / MIC): (23); MIC (P. aeruginosa K34-73): 32 µg/mL (≈ 44.3 µM); selectivity index (EC50/MIC) (P. aeruginosa K34-73): (6); MIC (P. aeruginosa K34-7): 32 µg/mL (≈ 44.3 µM); selectivity index (EC50/MIC) (P. aeruginosa K34-7): (6); MIC (P. aeruginosa K44-24): 32 µg/mL (≈ 44.3 µM); selectivity index (EC50/MIC) (P. aeruginosa K44-24): (6); MIC (K. pneumoniae 50531633): 32 µg/mL (≈ 44.3 µM); selectivity index (EC50/MIC) (K. pneumoniae 50531633): (6); MIC (K. pneumoniae 50625602; Klebsiella pneumoniae, read-out: Antimicrobial activity (MIC)): 32 µg/mL (≈ 44.3 µM); selectivity index (EC50/MIC) (K. pneumoniae 50625602; RBC EC50 / MIC): (6); MIC (K. pneumoniae 50667959): 32 µg/mL (≈ 44.3 µM); selectivity index (EC50/MIC) (K. pneumoniae 50667959): (6); MIC (K. pneumoniae K47-25): > 32 µg/mL; MIC (K. pneumoniae K66-45): 32 µg/mL (≈ 44.3 µM); selectivity index (EC50/MIC) (K. pneumoniae K66-45): (6) |
